Measurements as given in patent US12201679B2, “Epitope-targeted peptide immunostimulants” (priority 2019, dated 2025).
“Also recorded” adds a separate entry of the source. Bridge positions count the residues as written; N and C are the ends. Square brackets hold non-standard residues; d marks the D form. Triazole bridges read from a SMILES are 1,4-linked. Ends that are not written are not given here. Peptide text beside a SMILES is read from it. Lys(N3) = [N-]=[N+]=NCCCC[C@H](N)C(=O)O; Pra = C#CC[C@H](N)C(=O)O

How the values were obtained:
[1] = test system: Escherichia coli; assay: Whole-cell ELISA, biotinylated PCC, E. coli; type: cell-based; conditions: biotinylated PCC at 5 μM, FIG. 5C
Experimental: (§1) Whole-cell ELISA data in FIG. 5C show strong signal from the two strains of K. pneumoniae (BAA 1705 and BAA 2146) but only weak signals from Escherichia coli (E. coli) or Salmonella typhimurium (S. typhimurium) cells. […] In these tests, droplets of phosphate buffered solution containing live bacteria or heat-killed bacteria and various concentrations of (NH4)2SO4 at 10 m or 30 m following mixing were imaged. Aggregation in each droplet was assessed by visual inspection and scored as indicating non-aggregated, low levels of aggregation, or extensive aggregation. All droplets were on a single glass slide and image acquisition of all droplets took less than a minute for each 10 m and 30 m time point.
(§2) Detection of the binding of biotinylated PCCs to bacterial surface was performed as follows. 10^8 bacteria from a culture grown overnight were used for each test. Bacteria were incubated with PBS containing 1% BSA (PBS-BSA) for 1 h at 37° C., washed once with PBS, and then incubated with 5 μM of the biotinylated PCC in PBS-BSA for 1 h at 37° C. After washing thrice with PBS to remove unbound PCCs, bacteria were incubated with Streptavidin-HRP (1:1000) for 1 h at 37° C. Bacteria were washed thoroughly and the TMB reagent was added until visible coloration was observed. The reaction was quenched using 2N H2SO4 and absorbance was measured at 450 nm.

[2] = biological target: SynEp 1 (Klebsiella pneumoniae, UniProt P12267, V41X); assay: Epitope selectivity sandwich ELISA, immobilized SynEp 1; conditions: DNP-conjugated ligand at 500 nM, background biotin-PEG6
[3] = biological target: full-length recombinant MrkA protein (Klebsiella pneumoniae, UniProt P12267); type: binding; conditions: sandwich ELISA, alanine scan and analogues
Source text: HPraGly is present before X1 in each peptide and Az4 follows X5 in each peptide.

[4] = test system: K. pneumoniae cells, BAA 1705 and BAA 2146; assay: Whole-cell ELISA, anti-DNP recruitment to bacterial cell surfaces; type: cell-based, Klebsiella pneumoniae; conditions: cy(LLFFF)-DNP 5 or 10 μM; dummy cy(HNGPT)-DNP 50 and 100 μM; plus anti-DNP
Experimental: FIG. 12 is a plot of 450 nm absorbances obtained from a cell-based ELISA assay conducted on two strains of K. pneumoniae cells, BAA 1705 (black) and BAA 2146 (orange), that were either untreated or opsonized by EPIs (AR-PCCs) and/or antibodies. […] This establishes EPI-driven opsonization by cy(LLFFF)-DNP (SEQ ID NO:5).
The protocol for detecting anti-DNP recruitment to bacterial cell surfaces is as follows. Bacteria were incubated with the desired concentration of DNP-conjugated PCCs in PBS-BSA for 1 h at 37° C. Residual PCCs were washed off by using PBS-BSA and bacteria were incubated with anti-DNP antibody (1:1000) for 1 h at 37° C. After washing, bacteria were incubated with HRP conjugated secondary antibody (Bio-Rad) at a dilution of 1:10,000 for 1 h at 37° C. Unbound antibody was washed off by using PBS-BSA and the cells were then developed by using TMB reagent. The reaction was quenched using 2N H2SO4 and absorbance was measured at 450 nm. Anti-MrkA antibody was procured from Biorbyt (orb51318) and used at a concentration of 5 μg/mL, and K. pneumoniae antiserum was obtained from abcam (ab20947) and used at a concentration of 5 μg/mL.

[5] = test system: MrkA-knockout KPPR1 cells; assay: Whole-cell ELISA, biotinylated PCC, MrkA-knockout KPPR1; type: cell-based, Klebsiella pneumoniae
Experimental: ELISA signals were only observed for K. pneumoniae cells (strain BAA 1705) cultured in G-CAA (FIG. 11A), when treated with PCCs at concentrations of 5 μM or lower.
as §2

[6] = test system: K. pneumoniae cells (strain BAA 1705); assay: Gentamicin protection assay: phagocytosis and opsonophagocytic killing (OPK) by macrophages; type: cell-based, Klebsiella pneumoniae
Experimental: It also tested whether DNP-conjugated EPIs could promote the opsonophagocytic killing (OPK) of K. pneumoniae by macrophages. This was tested by using an OPK assay. Briefly, K. pneumoniae cells were treated with EPI and then anti-DNP antibody before being exposed to macrophages for either 6 or 24 hours. During this incubation period, macrophages that recognize K. pneumoniae cells will phagocytose them, and phagocytosed bacteria will remain viable for up to 6 hours, but within 24 hours are rendered inviable by OPK. Thus, macrophages were isolated after 6 and 24 hours of incubation with K. pneumoniae, lysed them, and plated and grew the lysate, which yielded bacterial colonies that reflect the phagocytosis (at 6 hrs) or OPK (at 24 hrs) of bacteria.
Given that cy(LLFFF)-DNP (SEQ ID NO:5) recruits antibodies to K. pneumoniae surfaces, it was expected that K. pneumoniae opsonized in this manner would be more susceptible to phagocytosis by macrophages. AR-PCC-driven phagocytosis and OPK were quantified by a gentamicin protection assay, as depicted in FIG. 7A. For this assay, K. pneumoniae cells (strain BAA 1705) were treated with cy(LLFFF)-DNP (SEQ ID NO:5), opsonized by anti-DNP antibodies, and then incubated with murine bone-marrow-derived macrophages (BMDMs). BMDMs were subsequently exposed to a solution containing gentamicin, to which K. pneumoniae strain BAA 1705 is susceptible, to kill any extracellular bacteria. Phagocytosed bacteria remain viable inside BMDMs for at least 1 h, yet are rendered inviable after 24 h by OPK (FIG. 13). Macrophages harvested at 1 h and 24 h were lysed and plated to generate bacterial colonies, which were enumerated to quantify phagocytosis and OPK.
Klebsiella pneumoniae BAA1705 was treated with DNP-PCCs followed by incubation with anti-DNP antibody, as described above in the “Cell-Based ELISAs” section. These opsonized bacteria were then used to infect BMDMs at a multiplicity of infection of 50 for 0.5 h at 37° C. Bacteria were then washed by using RPMI 1640 Media and BMDMs were left in cell culture medium containing gentamicin (100 μg/ml). After 1 h and 24 h BMDMs were washed to remove gentamicin and intracellular bacteria were harvested by lysing BMDMs in RPMI media containing 0.2% Triton X 100. Bacterial CFUs were enumerated by plating onto LB agar. Bacterial counts at 1 h indicated the degree of opsonization while those at 24 h served as a measure of microbicidal activity of macrophages. For these measurements, anti-MrkA antibody and K. pneumoniae antiserum were used at dilutions of 5 μg/mL each.

[7] = test system: Salmonella typhimurium; assay: Whole-cell ELISA, biotinylated PCC, S. typhimurium; type: cell-based; conditions: biotinylated PCC at 5 μM, FIG. 5C
Experimental: as §1, §2

[8] = test system: K. pneumoniae (strains BAA 1705 & 2146); assay: Whole-cell ELISA, biotinylated PCC, multidrug-resistant K. pneumoniae; type: cell-based, Klebsiella pneumoniae; conditions: for whole-cell ELISA binding at high PCC concentration: strain BAA 1705, 50 μM PCC, LB or G-CAA; for whole-cell ELISA 450 nm absorbance, cells cultured in G-CAA (high MrkA) / whole-cell ELISA 450 nm absorbance, cells cultured in LB (low MrkA): strain BAA 1705, PCC 5 μM to 5 nM
Experimental: Detection of the binding of biotinylated PCCs to bacterial surface was performed as follows. 10^8 bacteria from a culture grown overnight were used for each test. […] After washing thrice with PBS to remove unbound PCCs, bacteria were incubated with Streptavidin-HRP (1:1000) for 1 h at 37° C. Bacteria were washed thoroughly and the TMB reagent was added until visible coloration was observed. The reaction was quenched using 2N H2SO4 and absorbance was measured at 450 nm.

[9] = test system: wild type KPPR1 (ATCC 43816) cells; assay: Whole-cell ELISA, biotinylated PCC, wild type KPPR1; type: cell-based, Klebsiella pneumoniae; conditions: biotinylated PCC 5 μM down to 5 nM, G-CAA media
Experimental: In this assay, bacteria are exposed to biotinylated PCC ligands, then SAv-horseradish peroxidase (SAv-HRP), and then developed to produce a colorometric signal that correlates with SAv-HRP binding.
Whole-cell ELISA assays were conducted on the wild type version of the clinically-relevant strain of K. pneumoniae, KPPR1 (ATCC 43816). Wild type KPPR1 cells were cultured in G-CAA media to promote fimbrial expression (54), and MrkA expression in KPPR1 was confirmed by a western blot (FIG. 5B inset, full blot in FIG. 9).
as §2

[10] = test system: K. pneumoniae cells (strain BAA 2146); assay: Flow cytometry, recruitment of fluorescent anti-DNP antibodies; type: cell-based, Klebsiella pneumoniae; conditions: 50 μM AR-PCC plus Alexafluor 488 anti-DNP
[11] = test system: live MRSA cells or heat-killed MRSA cells; assay: ELISA, PCC-driven SAv-HRP recruitment to MRSA cells; type: cell-based, Staphylococcus aureus; conditions: biotinylated PCC, with or without 0.4 micrograms/mL tunicamycin
Experimental: FIG. 16A-16B are graphs showing PCC-driven recruitment of streptavidin-horseradish peroxidase (SAv-HRP) conjugate to live MRSA cells (FIG. 16A) or heat-killed MRSA cells (FIG. 16B) cultured under different antibiotic conditions via enzyme-linked Immunosorbent Assays (ELISAs). All tests were conducted by coating the antigen (MRSA cells) onto the wells of 96-well plates and then exposing the wells solutions containing biotinylated PCCs, then SAv-HRP, then HRP substrate followed by detection via absorbance at 450 nm. Absorbance values greater than the “no PCC” background indicate that several PCCs recruit SAv-HRP to either live cells (FIG. 16A) or heat-killed cells (FIG. 16B) cultured either without antibiotic (“−tunicamycin”, blue bars) or with 0.4 micrograms/mL of tunicamycin (“+tunicamycin”, red), which reduces the expression of wall teichoic aids by MRSA. All measurements were conducted in triplicate and error bars reflect standard deviations. The PCC sequences are, from left to right in both graphs, SEQ ID NOs: 6, 23, 34, and 29.
The recruitment ability of selected PCCs was assessed by PCC-driven recruitment of streptavidin-horseradish peroxidase (SAv-HRP) conjugate to live MRSA cells (FIG. 16A) or heat-killed MRSA cells (FIG. 16B) cultured under different antibiotic conditions via enzyme-linked Immunosorbent Assays (ELISAs). […]

`CC(C)C[C@@H]1NC(=O)[C@H](CC(C)C)NC(=O)[C@@H](N)Cc2cn(nn2)CCCC[C@@H](C(=O)O)NC(=O)[C@H](Cc2ccccc2)NC(=O)[C@H](Cc2ccccc2)NC(=O)[C@H](Cc2ccccc2)NC1=O` [cy(LLFFF)] (H-[Pra]LLFFF[Lys(N3)]-OH; triazole 1-7) was tested, and the “whole-cell ELISA signal, E. coli” value [1] was “small absorbances; also recorded: weak signals”, the “ELISA signal on SynEp 1” value [2] was “Negative signals” and the “binding to full-length MrkA compared to cy(LLFFF)” value [3] was “highest affinity”. For the same compound, the “450 nm absorbance, anti-DNP opsonization of K. pneumoniae” value [4] was “much larger signal”, the “whole-cell ELISA signal, MrkA-knockout KPPR1” value [5] was “comparable to baseline; also recorded: but not MrkA-knockout KPPR1” and the “CFU, DNP-conjugated EPI plus anti-DNP, macrophages harvested at 6 hrs” value ([6]; 6 hrs) was “more than 80,000 CFU”. The “cell counts, DNP-conjugated EPI only (no antibody), macrophages harvested at 6 hrs” value ([6]; 6 hrs) was ~35,000, the “cell counts at 24 h (OPK)” value ([6]; 24 h of incubation) was “little to no cell counts” and the “whole-cell ELISA signal, S. typhimurium” value [7] was “small absorbances; also recorded: weak signals”. For the same compound, the “whole-cell ELISA binding at high PCC concentration” value [8] was “bound K. pneumoniae cells regardless of MrkA-expression level; also recorded: strong and comparable ELISA signals”, the “whole-cell ELISA 450 nm absorbance, cells cultured in G-CAA (high MrkA)” value [8] was “strong absorbances” and the “whole-cell ELISA 450 nm absorbance, cells cultured in LB (low MrkA)” value [8] was “near-baseline absorbances”. For the same compound, the “binding selectivity towards MrkA-expressing K. pneumoniae cells versus E. coli and S. typhimurium” value ([8]; whole-cell ELISA, FIG. 5C) was “excellent binding selectivity” and the “whole-cell ELISA signal, wild type KPPR1” value [9] was “strong signals; also recorded: binds wild type MrkA-expressing KPPR1 cells”.
For “cy(HNGPT)-DNP (cyclo(HNGPT); also: DNP label) [reference compound]”, the “fluorescence intensity of cells (predominantly)” value [10] was < 1.0×10^1 intensity and the “450 nm absorbance, anti-DNP opsonization of K. pneumoniae” value [4] was “Much smaller signals”.
With cy(LLFFA) (cyclic) the “whole-cell ELISA signal, E. coli” value [1] was “low signals”, the “whole-cell ELISA signal, MrkA-knockout KPPR1” value [5] was “comparable to baseline; also recorded: Much lower binding” and the “colony counts at 1 h, EPI plus anti-DNP antibody” value ([6]; 5 μM AR-PCC, murine BMDMs, 1 h) was 85,000 CFU. The “whole-cell ELISA signal, S. typhimurium” value [7] was “low signals”, the “whole-cell ELISA signal, K. pneumoniae BAA 1705 and BAA 2146” value ([8]; biotinylated PCC at 5 μM, FIG. 5C) was “low signals; also recorded: no or minimal binding above baseline” and the “whole-cell ELISA binding at high PCC concentration” value [8] was “bound K. pneumoniae cells regardless of MrkA-expression level; also recorded: strong and comparable ELISA signals”. For the same compound, the “whole-cell ELISA 450 nm absorbance, cells cultured in G-CAA (high MrkA)” value [8] was “near-baseline absorbances”, the “whole-cell ELISA 450 nm absorbance, cells cultured in LB (low MrkA)” value [8] was “near-baseline absorbances” and the “whole-cell ELISA signal, wild type KPPR1” value [9] was “much lower intensities; also recorded: Much lower binding”.
With “cy(akkrp) ([dA][dK][dK][dR][dP]; not fully specified (bridges); printed as cy(akkrp); also: cyclic, closure not given here)” the “SAv-HRP recruitment to MRSA cells” value [11] was “Standout recruiting peptides”.
With “cy(kpdew) ([dK][dP][dD][dE][dW]; not fully specified (bridges); printed as cy(kpdew); also: cyclic, closure not given here)” the “SAv-HRP recruitment to MRSA cells” value [11] was “Standout recruiting peptides”.
